Measured values from PubChem BioAssay (NCI).
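Test compounds were applied to cells in 96-well plates for 48 hours at 5 doses. GI50: concentration for 50% inhibition of growth. Definition used: TGI = concentration required for complete inhibition of growth.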

Tests used:
Assay in all cases: NCI tumour cell line growth inhibition, 48 h
[1] = system: 786-0 renal
[2] = system: A549 NSCLC
[3] = system: CAKI-1 renal
[4] = system: CCRF-CEM leukemia
[5] = system: COLO 205 colon
[6] = system: DLD-1 colon
[7] = system: DMS 114 small cell lung
[8] = system: DMS 273 small cell lung
[9] = system: EKVX NSCLC
[10] = system: HCC-2998 colon
[11] = system: HCT-116 colon
[12] = system: HCT-15 colon
[13] = system: HT29 colon
[14] = system: IGROV1 ovarian
[15] = system: KM12 colon
[16] = system: KM20L2 colon
[17] = system: LOX IMVI melanoma
[18] = system: M14 melanoma
[19] = system: MALME-3M melanoma
[20] = system: NCI-H226 lung
[21] = system: NCI-H23 lung
[22] = system: NCI-H460 lung
[23] = system: OVCAR-3 ovarian
[24] = system: OVCAR-4 ovarian
[25] = system: OVCAR-5 ovarian
[26] = system: OVCAR-8 ovarian
[27] = system: RXF 393 renal
[28] = system: SF-268 CNS
[29] = system: SF-295 CNS
[30] = system: SF-539 CNS
[31] = system: SK-MEL-2 melanoma
[32] = system: SK-MEL-28 melanoma
[33] = system: SK-MEL-5 melanoma
[34] = system: SK-OV-3 ovarian
[35] = system: SN12C renal
[36] = system: SNB-19 CNS
[37] = system: SNB-75 CNS
[38] = system: SR leukemia
[39] = system: SW-620 colon
[40] = system: TK-10 renal
[41] = system: U251 CNS
[42] = system: UACC-257 melanoma
[43] = system: UACC-62 melanoma
[44] = system: UO-31 renal

[Cl-].[Cl-].[Cl-].[O-]c1cccc2cccnc12.[O-]c1cccc2cccnc12.[O]=[Mo]
GI50 [1]: 18.5 µM | TGI [1]: 99.8 µM | GI50 [2]: 3.59 µM | TGI [2]: > 100 µM | GI50 [3]: 20.6 µM | TGI [3]: > 100 µM | GI50 [4]: 0.35 µM | TGI [4]: > 100 µM | GI50 [5]: 4.6 µM | TGI [6]: > 100 µM | TGI [7]: 3.13 µM | TGI [8]: 4.41 µM | GI50 [9]: 15.4 µM | TGI [9]: 78.4 µM | GI50 [10]: 2.41 µM | TGI [10]: 5.69 µM | GI50 [11]: 2.58 µM | TGI [11]: 36.4 µM | GI50 [12]: 2.39 µM | TGI [12]: > 100 µM | GI50 [13]: 2.88 µM | TGI [13]: 11.5 µM | TGI [14]: 35 µM | GI50 [15]: 0.448 µM | TGI [15]: 2.08 µM | TGI [16]: 70.6 µM | GI50 [17]: 2.33 µM | TGI [17]: 22 µM | GI50 [18]: 1.81 µM | TGI [18]: 5.48 µM | GI50 [19]: 2.25 µM | TGI [19]: 4.99 µM | GI50 [20]: 2.28 µM | TGI [20]: 14.2 µM | GI50 [21]: 2.6 µM | TGI [21]: 8.38 µM | GI50 [22]: 2.52 µM | TGI [22]: 11.7 µM | GI50 [23]: 6.88 µM | TGI [23]: > 100 µM | GI50 [24]: 3.9 µM | TGI [24]: 47 µM | GI50 [25]: 2.85 µM | TGI [25]: 8.6 µM | GI50 [26]: 2.53 µM | TGI [26]: 12.3 µM | GI50 [27]: 2 µM | TGI [27]: 4.89 µM | GI50 [28]: 6.33 µM | TGI [28]: 55.2 µM | GI50 [29]: 2.8 µM | TGI [29]: 17.2 µM | GI50 [30]: 7.34 µM | TGI [30]: > 100 µM | GI50 [31]: 3.37 µM | TGI [31]: 18.1 µM | GI50 [32]: 2.43 µM | TGI [32]: 9.41 µM | TGI [33]: 3.89 µM | GI50 [34]: 15.1 µM | TGI [34]: 39.6 µM | GI50 [35]: 6.71 µM | TGI [35]: > 100 µM | GI50 [36]: 4.87 µM | TGI [36]: > 100 µM | GI50 [37]: 5.08 µM | TGI [37]: > 100 µM | TGI [38]: > 100 µM | GI50 [39]: 1.92 µM | TGI [39]: > 100 µM | GI50 [40]: 15.2 µM | TGI [40]: > 100 µM | GI50 [41]: 3.57 µM | TGI [41]: 40.5 µM | GI50 [42]: 2.1 µM | TGI [42]: 6.69 µM | GI50 [43]: 2.49 µM | TGI [43]: 7.41 µM | GI50 [44]: 4.09 µM | TGI [44]: 24.1 µM
